# Assay results taken from article PMC6514812, “[^18F]Fluoroethyltriazolyl Monocyclam Derivatives as Imaging Probes for the Chemokine Receptor CXCR4” (Molecules, 2019).
# Read-outs that look alike come from different tables or passages of the source. Non-standard residues stand in square brackets, D forms with d. Residues, ends and D or L forms follow the SMILES beside them. Groups on a side chain read outwards from the residue. *: point of attachment. DOTA = O=C(O)CN1CCN(CC(=O)O)CCN(CC(=O)*)CCN(CC(=O)O)CC1; 2Nal = N[C@@H](Cc1ccc2ccccc2c1)C(=O)O; dNMeOrn = CN[C@H](CCCN)C(=O)O; 4Amb = NCc1ccc(C(=O)O)cc1
# How the values were obtained:
# [1] = test system: PC3-CXCR4 cells; test: Cell-associated activity in PC3-CXCR4 cells; type: cell-based, human; settings: 1 h
# Experimental: Maximum cell-associated activity was calculated by subtracting the cell uptake of the radioactive ligand at the highest non-radioactive ligand concentration of 10 µM (which we considered to be non-specific uptake/binding) from the cell uptake at the lowest non-radioactive ligand concentration of 10^−5 µM.
# [2] = molecular target: T1, CXCR4 (Homo sapiens, UniProt P61073); test: Competition binding assay vs [^68Ga]Pentixafor in PC3-CXCR4 cells; settings: for IC50: vs 100 nM [^68Ga]Pentixafor, PC3-CXCR4 cells, 60 min 37 °C; for Hill Slope, Competitive Binding Experiment: vs [^68Ga]Pentixafor, value ± SD
# T1 construct: expressed in transfected cells; host or cells: PC3 (human prostate cancer) cells stably transduced with CXCR4
# Experimental: PC3-CXCR4 cells were plated in 12-well plates at a density of 500,000 cells per well and incubated for 48 h at 37 °C/5% CO2. Prior to the binding assay the cells were incubated in fresh media and 370–555 kBq of [^68Ga]Pentixafor or [^18F]RPS-544 was added to each well. The corresponding concentration of [^68Ga]Pentixafor in each well was 100 nM, and the concentration of [^18F]RPS-544 was approximately 5 pM. Then non-radioactive ligands were added to give a final ligand concentration in the range 0.001–10,000 nM. A total of eight concentrations were studied, and each concentration was tested in triplicate. The cells were incubated for 60 min at 37 °C/5% CO2. The media was removed under suction, the cells were washed with cold PBS 1X and detached and transferred to tubes for counting in 1 M NaOH. The cells were counted in a Wizard^2 Gamma Counter (PerkinElmer, Waltham, MA, USA). Non-specific binding was subtracted, and the IC50 values were determined by assuming a simple competitive binding interaction and fitting the data to a sigmoidal Hill plot in Origin 9.0 (OriginLab, Northampton, MA, USA). Potencies are expressed as IC50 ± standard deviation (Supplemental Data, Figure S7).
# [3] = molecular target: T1, CXCR4; test: Saturation binding assay in PC3-CXCR4 cells; settings: for Kd: saturation binding, PC3-CXCR4 cells; for Hill Slope, Saturation Binding Experiment: value ± SD
# Experimental: To determine the dissociation constants, saturation binding assays were performed in the PC3-CXCR4 cells. The cells were plated as described above, and approximately 5 nM of the radioligand was added to each well. Then the corresponding non-radioactive ligand was added to give a final concentration in the range 0.001–10,000 nM. A total of eight concentrations were tested, and each concentration was tested in triplicate. The samples were washed and counted as described above. Non-specific binding was subtracted, and Kd values were determined by performing a nonlinear one site binding curve fit with equation y = (Bmax · x)/(Kd + x). Values are expressed as Kd ± standard deviation (Supplemental Data, Figure S8).
# [4] = test system: PC3-CXCR4 xenograft tumors; test: Biodistribution in mice bearing bilateral PC3-WT/PC3-CXCR4 xenograft tumors; type: in vivo, BALB/c mice
# Experimental: (§1) All animal studies were approved by the Institutional Animal Care and Use Committee of Weill Cornell Medicine (Protocol Number: 2015-0066) and were undertaken in accordance with the guidelines set forth by the USPHS Policy on Humane Care and Use of Laboratory Animals. Animals were housed under standard conditions in approved facilities with 12 h light/dark cycles. Food and water was provided ad libitum throughout the course of the studies. Hairless 6-to-8-week old male BALB/c inbred athymic nude mice (Jackson Laboratory, Bar Harbor, ME, USA) were inoculated bilaterally with 0.2 mL of a 1:1 mixture of 10^7 PC3-CXCR4 cells in PBS and Matrigel (Corning, Tewksbury, MA, USA) subcutaneously in the left shoulder and 0.2 mL of a 1:1 mixture of 10^7 PC3-WT cells in PBS and Matrigel subcutaneously in the right shoulder. Imaging and biodistribution studies were performed three weeks post-implantation, when tumors were approximately 100–300 mm^3.
# (§2) For the biodistribution studies, tumor-bearing animals (n = 5/compound/time point) were injected intravenously with 50–100 μL of a 9% v/v EtOH/saline solution containing approximately 1.1 MBq of the radioligand. […] The mice were euthanized at 1 or 2 h p.i. and tissues including blood, heart, lungs, liver, small intestine, large intestine, stomach (with contents), spleen, pancreas, kidneys, muscle, bone, PC3-WT tumors, PC3-CXCR4 tumors, and tail were collected. All organs were weighed and placed in test tubes for counting in a Wizard^2 Gamma Counter (PerkinElmer, Waltham, MA, USA). For comparison, 1% injected activity standards were prepared and counted along with the tissue samples. The tails were counted to correct for any dose extravasation. Activity in each tissue was corrected for decay and for injected activity and expressed as percent injected dose per gram of tissue (%ID/g) ± standard error.
# [5] = as above; type: in vivo, BALB/c mice; settings: for tissue to tissue ratio at 2 h: 2 h p.i.
# Experimental: as §1, §2
# [6] = 1 h p.i., blocked by co-injection of 5 mg/kg AMD-3100
# T1 sequence (P61073 whole entry): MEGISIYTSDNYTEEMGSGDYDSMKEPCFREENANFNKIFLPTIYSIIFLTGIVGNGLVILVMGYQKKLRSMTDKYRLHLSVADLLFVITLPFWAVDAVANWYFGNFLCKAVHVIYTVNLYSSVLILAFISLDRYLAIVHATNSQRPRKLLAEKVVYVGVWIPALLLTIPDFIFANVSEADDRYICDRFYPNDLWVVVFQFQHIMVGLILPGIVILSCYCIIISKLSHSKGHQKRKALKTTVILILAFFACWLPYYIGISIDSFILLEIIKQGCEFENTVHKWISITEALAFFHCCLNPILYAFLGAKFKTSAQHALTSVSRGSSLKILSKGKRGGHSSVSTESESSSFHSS
structure (smiles),measurement,setting,value
FCCn1cc(CCNCc2ccc(CN3CCCNCCNCCCNCC3)cc2)nn1 [RPS-552],Cell-Associated Activity,[1],3.5 ± 0.1 %IA
same,IC50,[2],515 ± 68 nM
same,"Hill Slope, Competitive Binding Experiment",[2],1.18 ± 0.07
same,Kd,[3],314 ± 48 nM
same,"Hill Slope, Saturation Binding Experiment",[3],0.93 ± 0.14
same,Bone tissue activity,[4]; 1 h p.i.,0.64±0.14 %ID/g
same,Heart tissue activity,[4]; 1 h p.i.,0.13±0.03 %ID/g
same,Kidneys tissue activity,[4]; 1 h p.i.,7.23 ± 2.66 %ID/g
same,Large Intestine tissue activity,[4]; 1 h p.i.,0.43±0.10 %ID/g
same,Liver tissue activity,[4]; 1 h p.i.,4.36±0.24 %ID/g
same,Lungs tissue activity,[4]; 1 h p.i.,0.50±0.04 %ID/g
same,Muscle tissue activity,[4]; 1 h p.i.,0.15±0.04 %ID/g
same,PC3-CXCR4 Tumor Uptake,[4]; 1 h p.i.,2.52 ± 0.11 %ID/g
same,PC3-CXCR4 Tumor-to-Tissue Ratio Blood,[4]; 1 h p.i.,11.9 ± 0.1
same,PC3-CXCR4 Tumor-to-Tissue Ratio Bone,[4]; 1 h p.i.,4.0 ± 0.2
same,PC3-CXCR4 Tumor-to-Tissue Ratio Kidneys,[4]; 1 h p.i.,0.3 ± 0.3
same,PC3-CXCR4 Tumor-to-Tissue Ratio Liver,[4]; 1 h p.i.,0.6 ± 0.1
same,PC3-CXCR4 Tumor-to-Tissue Ratio Lungs,[4]; 1 h p.i.,5.0 ± 0.1
same,PC3-CXCR4 Tumor-to-Tissue Ratio Muscle,[4]; 1 h p.i.,16.7 ± 0.1
same,PC3-CXCR4 Tumor-to-Tissue Ratio PC3-WT,[4]; 1 h p.i.,2.5 ± 0.3
same,PC3-WT tumor activity,[4]; 1 h p.i.,1.00±0.23 %ID/g
same,Pancreas tissue activity,[4]; 1 h p.i.,0.26±0.05 %ID/g
same,Small Intestine tissue activity,[4]; 1 h p.i.,0.54±0.06 %ID/g
same,Spleen tissue activity,[4]; 1 h p.i.,0.92±0.08 %ID/g
same,Stomach tissue activity,[4]; 1 h p.i.,0.14±0.07 %ID/g
same,Bone tissue activity,[4]; [6],0.31±0.07 %ID/g
same,Heart tissue activity,[4]; [6],0.18±0.08 %ID/g
same,Kidneys tissue activity,[4]; [6],4.41±1.01 %ID/g
same,Large Intestine tissue activity,[4]; [6],0.22±0.03 %ID/g
same,Liver tissue activity,[4]; [6],3.15±0.70 %ID/g
same,Lungs tissue activity,[4]; [6],0.49±0.09 %ID/g
same,Muscle tissue activity,[4]; [6],0.45±0.67 %ID/g
same,PC3-CXCR4 tumor activity,[4]; [6],1.20±0.43 %ID/g
same,PC3-WT tumor activity,[4]; [6],0.85±0.21 %ID/g
same,Pancreas tissue activity,[4]; [6],0.25±0.04 %ID/g
same,Small Intestine tissue activity,[4]; [6],0.80±0.11 %ID/g
same,Spleen tissue activity,[4]; [6],0.70±0.11 %ID/g
same,Stomach tissue activity,[4]; [6],0.20±0.20 %ID/g
same,Blood tissue activity,[5]; 1 h p.i.,0.21±0.07 %ID/g
same,Blood tissue activity,[5]; [6],0.27±0.06 %ID/g
"CN1C(=O)[C@@H](Cc2ccc(O)cc2)NC(=O)CNC(=O)[C@H](Cc2ccc3ccccc3c2)NC(=O)[C@H](CCCNC(=N)N)NC(=O)[C@H]1CCCNC(=O)c1ccc(CNC(=O)CN2CCN(CC(=O)O)CCN(CC(=O)O)CCN(CC(=O)O)CC2)cc1 (68Ga complex, metal not drawn) [Pentixafor, reference compound] (cyclo([dY][dNMeOrn]([4Amb-DOTA])R[2Nal]G))",PC3-CXCR4 Tumor-to-Tissue Ratio Blood,[4]; 2 h p.i.,32.1 ± 0.1
same,PC3-CXCR4 ratio to all normal tissue except kidneys,[4]; 2 h p.i.,greater than 10
same,tissue to tissue ratio at 1 h,"[5]; male, BALB/c athymic nude, mouse, PC3-CXCR4 tumor and PC3-WT tumor, iv, total radioactivity, 1 h p.i., read-out: PC3-CXCR4 Tumor-to-Tissue Ratio PC3-WT",2 ± 0.2
same,tissue to tissue ratio at 2 h,"[5]; male, BALB/c athymic nude, mouse, PC3-CXCR4 tumor and PC3-WT tumor, iv, total radioactivity, read-out: PC3-CXCR4 Tumor-to-Tissue Ratio PC3-WT",2.8 ± 0.1
same,tissue to tissue ratio at 1 h,"[5]; male, BALB/c athymic nude, mouse, PC3-CXCR4 tumor and blood, iv, total radioactivity, 1 h p.i., read-out: PC3-CXCR4 Tumor-to-Tissue Ratio Blood",11.4 ± 0.2
same,tissue to tissue ratio at 2 h,"[5]; male, BALB/c athymic nude, mouse, PC3-CXCR4 tumor and blood, iv, total radioactivity, read-out: PC3-CXCR4 Tumor-to-Tissue Ratio Blood",31.1 ± 0.1
same,tissue to tissue ratio at 1 h,"[5]; male, BALB/c athymic nude, mouse, PC3-CXCR4 tumor and bone, iv, total radioactivity, 1 h p.i., read-out: PC3-CXCR4 Tumor-to-Tissue Ratio Bone",28.7 ± 0.2
same,tissue to tissue ratio at 2 h,"[5]; male, BALB/c athymic nude, mouse, PC3-CXCR4 tumor and bone, iv, total radioactivity, read-out: PC3-CXCR4 Tumor-to-Tissue Ratio Bone",47.2 ± 0.1
same,tissue to tissue ratio at 1 h,"[5]; male, BALB/c athymic nude, mouse, PC3-CXCR4 tumor and kidneys, iv, total radioactivity, 1 h p.i., read-out: PC3-CXCR4 Tumor-to-Tissue Ratio Kidneys",4 ± 0.2
same,tissue to tissue ratio at 2 h,"[5]; male, BALB/c athymic nude, mouse, PC3-CXCR4 tumor and kidneys, iv, total radioactivity, read-out: PC3-CXCR4 Tumor-to-Tissue Ratio Kidneys",5.3 ± 0.1
same,tissue to tissue ratio at 1 h,"[5]; male, BALB/c athymic nude, mouse, PC3-CXCR4 tumor and liver, iv, total radioactivity, 1 h p.i., read-out: PC3-CXCR4 Tumor-to-Tissue Ratio Liver",10.8 ± 0.2
same,tissue to tissue ratio at 2 h,"[5]; male, BALB/c athymic nude, mouse, PC3-CXCR4 tumor and liver, iv, total radioactivity, read-out: PC3-CXCR4 Tumor-to-Tissue Ratio Liver",10.8 ± 0.1
same,tissue to tissue ratio at 1 h,"[5]; male, BALB/c athymic nude, mouse, PC3-CXCR4 tumor and lungs, iv, total radioactivity, 1 h p.i., read-out: PC3-CXCR4 Tumor-to-Tissue Ratio Lungs",11.8 ± 0.2
same,tissue to tissue ratio at 2 h,"[5]; male, BALB/c athymic nude, mouse, PC3-CXCR4 tumor and lungs, iv, total radioactivity, read-out: PC3-CXCR4 Tumor-to-Tissue Ratio Lungs",17.1 ± 0.1
same,tissue to tissue ratio at 1 h,"[5]; male, BALB/c athymic nude, mouse, PC3-CXCR4 tumor and muscle, iv, total radioactivity, 1 h p.i., read-out: PC3-CXCR4 Tumor-to-Tissue Ratio Muscle",56.1 ± 0.2
same,tissue to tissue ratio at 2 h,"[5]; male, BALB/c athymic nude, mouse, PC3-CXCR4 tumor and muscle, iv, total radioactivity, read-out: PC3-CXCR4 Tumor-to-Tissue Ratio Muscle",101.2 ± 0.1
same,tissue uptake at 1 h,"[5]; male, BALB/c athymic nude, mouse, PC3-CXCR4 tumor, iv, total radioactivity, 1 h p.i., read-out: Maximum PC3-CXCR4 tumor activity",14.6 ± 2.7 %ID/g
FCCn1cc(NCc2ccc(CN3CCCNCCNCCCNCC3)cc2)nn1 [RPS-546],Cell-Associated Activity,[1],1.2 ± 0.1 %IA
same,IC50,[2],~1500 nM
same,"Hill Slope, Competitive Binding Experiment",[2],0.96 ± 0.10
same,Kd,[3],~1700 nM
same,"Hill Slope, Saturation Binding Experiment",[3],0.98 ± 0.19
"c1ccc(CNCc2ccc(CN3CCCNCCNCCCNCC3)cc2)nc1 [AMD-3465, reference compound]","Hill Slope, Competitive Binding Experiment",[2],1.01 ± 0.30
